# Results published in patent US7176224B2, “Oxazolyl-aryloxyacetic acid derivatives and their use as PPAR agonists” (Eli Lilly and Company, priority 2000, dated 2007).
# Experiments:
# [1] = molecular target: T1, huPPARα (Homo sapiens, UniProt Q07869); assay: DNA-dependent binding (ABCD binding), SPA, radioligand displacement; details: tritium-labeled PPARα agonist radioligand
# T1 sequence (Q07869 1-468): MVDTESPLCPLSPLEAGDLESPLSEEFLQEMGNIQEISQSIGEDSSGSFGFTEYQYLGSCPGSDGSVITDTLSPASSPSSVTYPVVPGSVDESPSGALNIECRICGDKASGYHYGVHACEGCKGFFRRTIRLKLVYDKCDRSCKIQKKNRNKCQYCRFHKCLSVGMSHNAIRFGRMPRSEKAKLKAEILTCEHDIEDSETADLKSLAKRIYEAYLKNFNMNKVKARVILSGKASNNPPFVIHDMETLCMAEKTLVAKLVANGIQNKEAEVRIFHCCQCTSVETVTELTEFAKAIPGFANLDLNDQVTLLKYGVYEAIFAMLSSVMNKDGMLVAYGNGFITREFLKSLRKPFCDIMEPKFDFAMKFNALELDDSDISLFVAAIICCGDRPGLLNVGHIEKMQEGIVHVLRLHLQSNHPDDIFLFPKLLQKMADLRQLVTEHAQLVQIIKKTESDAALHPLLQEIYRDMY
# T1 sequence (P19793 1-462 partner): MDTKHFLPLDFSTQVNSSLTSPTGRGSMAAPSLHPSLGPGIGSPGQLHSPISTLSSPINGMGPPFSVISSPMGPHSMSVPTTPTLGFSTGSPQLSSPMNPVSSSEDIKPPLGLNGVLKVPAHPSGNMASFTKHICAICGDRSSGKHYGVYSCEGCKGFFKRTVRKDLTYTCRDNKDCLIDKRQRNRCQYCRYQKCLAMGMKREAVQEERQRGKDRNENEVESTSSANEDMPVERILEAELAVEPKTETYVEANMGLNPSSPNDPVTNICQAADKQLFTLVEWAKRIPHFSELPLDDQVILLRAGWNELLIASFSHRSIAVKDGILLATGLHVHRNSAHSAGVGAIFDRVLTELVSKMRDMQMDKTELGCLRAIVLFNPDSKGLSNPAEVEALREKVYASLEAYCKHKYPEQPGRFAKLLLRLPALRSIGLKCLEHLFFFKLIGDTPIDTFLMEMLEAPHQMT
# Description: (§1) […] binding (ABCD binding) was carried out using SPA technology with PPAR receptors. Tritium-labeled PPARα and PPARγ agonists were used as radioligands for generating displacement curves and IC50 values with compounds of the invention. Cotransfection assays were carried out in CV-1 cells. The reporter plasmid contained an acylCoA oxidase (AOX) PPRE and TK promoter upstream of the luciferase reporter cDNA. Appropriate PPARs and RXRα were constitutively expressed using plasmids containing the CMV promoter. […] In order to eliminate such interference, a GAL4 chimeric system was used in which the DNA binding domain of the transfected PPAR was replaced by that of GAL4, and the GAL4 response element was utilized in place of the AOX PPRE. Cotransfection efficacy was determined relative to PPARα agonist and PPARβ agonist reference molecules. Efficacies were determined by computer fit to a concentration-response curve, or in some cases at a single high concentration of agonist (10 μM). For binding or cotransfection studies with receptors other than PPARs, similar assays were carried out using appropriate ligands, receptors, reporter constructs, etc., for that particular receptor.
# (§2) These studies were carried out to evaluate the ability of compounds of the invention to bind to and/or activate various nuclear transcription factors, particularly huPPARα (“hu” indicates “human”) and huPPARγ. These studies provide in vitro data concerning efficacy and selectivity of compounds of the invention. Furthermore, binding and cotransfection data for compounds of the invention were compared with corresponding data for marketed compounds that act on either huPPARα or huPPARγ.
# [2] = molecular target: T2, huPPARγ (Homo sapiens, UniProt P37231); assay: as above; details: tritium-labeled PPARγ agonist radioligand
# T2 sequence (P37231 1-505): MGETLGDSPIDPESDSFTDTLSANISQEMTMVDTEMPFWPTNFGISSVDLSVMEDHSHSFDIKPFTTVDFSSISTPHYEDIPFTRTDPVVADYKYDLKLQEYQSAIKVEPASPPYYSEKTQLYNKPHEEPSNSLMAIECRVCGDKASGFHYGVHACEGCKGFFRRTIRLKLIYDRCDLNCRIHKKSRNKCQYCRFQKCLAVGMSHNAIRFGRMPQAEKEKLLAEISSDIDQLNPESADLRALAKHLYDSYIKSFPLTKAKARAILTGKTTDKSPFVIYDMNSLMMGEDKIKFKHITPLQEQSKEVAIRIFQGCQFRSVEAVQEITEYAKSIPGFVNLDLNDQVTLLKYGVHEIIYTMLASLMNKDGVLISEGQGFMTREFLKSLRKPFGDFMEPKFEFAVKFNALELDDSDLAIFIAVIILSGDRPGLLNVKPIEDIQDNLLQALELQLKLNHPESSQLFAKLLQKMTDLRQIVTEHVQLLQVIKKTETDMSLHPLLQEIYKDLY
# T2 sequence (P19793 1-462 partner): T1 sequence (P19793 1-462 partner)
# Description: as §1, §2
# [3] = tested on: huPPARα; assay: Cotransfection assay in CV-1 cells, luciferase reporter; assay type: cell-based, human; details: GAL4 chimeric system, relative to PPARα agonist reference molecule
# Description: […] binding (ABCD binding) was carried out using SPA technology with PPAR receptors. Tritium-labeled PPARα and PPARγ agonists were used as radioligands for generating displacement curves and IC50 values with compounds of the invention. Cotransfection assays were carried out in CV-1 cells. The reporter plasmid contained an acylCoA oxidase (AOX) PPRE and TK promoter upstream of the luciferase reporter cDNA. Appropriate PPARs and RXRα were constitutively expressed using plasmids containing the CMV promoter. For PPARα and […], interference by endogenous […] in CV-1 cells was an issue. In order to eliminate such interference, a GAL4 chimeric system was used in which the DNA binding domain of the transfected PPAR was replaced by that of GAL4, and the GAL4 response element was utilized in place of the AOX PPRE. Cotransfection efficacy was determined relative to PPARα agonist and […] reference molecules. Efficacies were determined by computer fit to a concentration-response curve, or in some cases at a single high concentration of agonist (10 μM). For binding or cotransfection studies with receptors other than PPARs, similar assays were carried out using appropriate ligands, receptors, reporter constructs, etc., for that particular receptor.
# as §2
# [4] = tested on: huPPARγ; assay: as above; assay type: cell-based, human; details: GAL4 chimeric system, relative to agonist reference molecule
# Description: as §1, with “Tritium-labeled PPARα and PPARγ agonists were used as radioligands for generating displacement curves and IC50 values with compounds of the invention.” left out, “Cotransfection efficacy was determined relative to PPARα agonist and PPARβ agonist reference molecules.” left out
# as §2
SMILES,IC50 [1] [nM],IC50 [2] [nM],huPPARα CTF Efficacy [3] [%],huPPARγ CTF Efficacy [4] [%]
"COc1cc(CC(C)(Oc2ccccc2)C(=O)O)ccc1OCCc1nc(-c2ccc(-c3ccccc3)cc2)oc1C (stereo not drawn) [Example 7, 3-{4-[2-(2-Biphenyl-4-yl-5-methyloxazol-4-yl)ethoxy]-3-methoxyphenyl}-2-methyl-2-phenoxypropionic acid]",4120,174,60,93
"COc1cc(CC(C)(Oc2ccccc2)C(=O)O)ccc1OCCc1nc(-c2cccc(-c3ccccc3)c2)oc1C (stereo not drawn) [Example 8, 3-{4-[2-(2-Biphenyl-3-yl-5-methyloxazol-4-yl)ethoxy]-3-methoxyphenyl}-2-methyl-2-phenoxypropionic acid]",605,41,45,91
"Cc1oc(-c2ccc(-c3ccccc3)cc2)nc1CCOc1ccc(CC(C)(Oc2ccc(C(C)(C)C)cc2)C(=O)O)cc1 (stereo not drawn) [Example 15, 3-{4-[2-(2-Biphenyl-4-yl-5-methyl-oxazol-4-yl)-ethoxy]-phenyl}-2-methyl-2-(4-tert-butylphenoxy)-propionic acid]",196,107,96,90
"Cc1oc(-c2ccc(-c3cccs3)cc2)nc1CCOc1ccc(CC(C)(Oc2ccc(C(C)(C)C)cc2)C(=O)O)cc1 (stereo not drawn) [Example 17, 2-Methyl-3-(4-{2-[5-methyl-2-(4-thiophen-2-yl-phenyl)-oxazol-4-yl]-ethoxy}-phenyl)-2-(4-tert-butylphenoxy)-propionic acid]",186,119,116,80
"Cc1oc(-c2ccc(-c3cccs3)cc2)nc1CCOc1ccc(CC(C)(Oc2cccc(F)c2)C(=O)O)cc1 (stereo not drawn) [Example 22, 2-(3-Fluoro-phenoxy)-2-methyl-3-(4-{2-[5-methyl-2-(4-thiophen-2-yl-phenyl)-oxazol-4-yl]-ethoxy}-phenyl)-propionic acid]",260,78,63,100
"Cc1oc(-c2cccc(-c3cccs3)c2)nc1CCOc1ccc(CC(C)(Oc2ccc(Cl)cc2)C(=O)O)cc1 (stereo not drawn) [Example 26, 2-(4-Chlorophenoxy)-2-methyl-3-(4-{2-[5-methyl-2-(3-thiophen-2-yl-phenyl)-oxazol-4-yl]-ethoxy}-phenyl)-propionic acid]",159,55,54,100
"Cc1ccc(OC(C)(Cc2ccc(OCCc3nc(-c4ccc(-c5ccccc5)cc4)oc3C)cc2)C(=O)O)cc1C (stereo not drawn) [Example 34, 3-{4-[2-(2-Biphenyl-4-yl-5-methyl-oxazol-4-yl)-ethoxy]-phenyl}-2-(3,4-dimethyl-phenoxy)-2-methyl-propionic acid]",165,40,61,95
"CCC(Cc1ccc(OCCc2nc(-c3cccc(-c4ccccc4)c3)oc2C)cc1)(Oc1ccccc1)C(=O)O (stereo not drawn) [Example 41, 2-{4-[2-(2-Biphenyl-3-yl-5-methyl-oxazol-4-yl)-ethoxy]-benzyl}-2-phenoxy-butyric acid]",402,45,44,108
"CCC(Cc1ccc(OCCc2nc(-c3cccc(-c4cccs4)c3)oc2C)cc1)(Oc1ccccc1)C(=O)O (stereo not drawn) [Example 42, 2-(4-{2-[5-Methyl-2-(3-thiophen-2-yl-phenyl)-oxazol-4-yl]-ethoxy}-benzyl)-2-phenoxy-butyric acid]",310,56,49,105
"Cc1cccc(OC(C)(Cc2ccc(OCCc3nc(-c4cccc(-c5ccccc5)c4)oc3C)cc2)C(=O)O)c1 (stereo not drawn) [Example 48, 3-{4-[2-(2-Biphenyl-3-yl-5-methyl-oxazol-4-yl)-ethoxy]-phenyl}-2-methyl-2-m-tolyloxy-propionic acid]",182,54,45,145
"Cc1oc(-c2cccc(-c3ccccc3)c2)nc1CCOc1ccc(CC(C)(Oc2ccc(F)cc2)C(=O)O)cc1 (stereo not drawn) [Example 51, 3-{4-[2-(2-Biphenyl-3-yl-5-methyl-oxazol-4-yl)-ethoxy]-phenyl}-2-(4-fluoro-phenoxy)-2-methyl-propionic acid]",203,56,43,160
"COc1cccc(OC(C)(Cc2ccc(OCCc3nc(-c4ccc(-c5ccccc5)cc4)oc3C)cc2)C(=O)O)c1 (stereo not drawn) [Example 56, 3-{4-[2-(2-Biphenyl-4-yl-5-methyl-oxazol-4-yl)-ethoxy]-phenyl}-2-(3-methoxy-phenoxy)-2-methyl-propionic acid]",613,99,70,88
"CC(C)(Oc1ccc(C(=O)c2ccc(Cl)cc2)cc1)C(=O)O [Fenofibric acid, reference compound]",–,–,16,0
"Cc1c(C)c2c(c(C)c1O)CCC(C)(COc1ccc(CC3SC(=O)NC3=O)cc1)O2 (stereo not drawn) [Troglitazone, reference compound]",–,–,0,–
